Laboratory results taken from publication PMC5665643, “CHIP as a membrane-shuttling proteostasis sensor” (eLife, 2017).

What was measured:
[1] = tested on: PI4KIII; conditions: at higher concentrations; ref Nakanishi et al., 1995; cited from earlier work
[2] = tested on: EGFP-CHIP-K30A; type III phosphatidylinositol-4 kinases (PI4KIII); assay: Undocking of EGFP-CHIP-K30A from membranes by PI4KIII inhibitors; type: cell-based, murine; conditions: same cells followed upon addition of inhibitor; ***p<0.001, t-test; N = 3
Source text: Phospholipase D inhibitors FIPI, VU0155069 and CAY10594 were purchased from Caymen Chemicals (Ann Arbor, MI), wortmannin from Enzo (Farmingdale, NY), PI4KIIIβ inhibitor IN-10 from MedChem Express (Monmouth Junction, NJ), HSP70 inhibitor VER-155008 from Sigma-Aldrich (St. Louis, MO), HSP90 inhibitor 17-(Allylamino)−17-demethoxygeldanamycin (17-AAG) from Biomol (Germany). 1,2-dioleoyl-sn-glycero-3-phosphocholine (DOPC) and 1,2-dipalmitoyl-sn-glycero-3-phosphate (phosphatidic acid, PA) were from Avanti Polar Lipids (Alabaster, AL), 1,2-dipalmitoyl-sn-glycero-3-phosphoinositol-4-phosphate (phosphadtidylinositol-4-phosphate, PI4P) was from Echelon Bioscience (Salt Lake City, UT). All other chemicals were from Sigma-Aldrich if not indicated otherwise. […]
For microscopy analysis of CHIP localization, samples were not fixed. […] For quantification, fields of view were chosen randomly. […]
Membrane localization and Golgi morphology were analyzed manually using ImageJ from following numbers of cells (average of at least three independent experiments): 92 (Figure 1a), 142 (Figure 1d), 90 (Figure 1—figure supplement 1b), 125 (Figure 1—figure supplement 1c), 149 (Figure 1—figure supplement 1d), 84 (Figure 3c), 130 (Figure 5a), 206 (Figure 5g), 240 (Figure 5h), 93 (Figure 5—figure supplement 1d), and 137 (Figure 5—figure supplement 1j). […]

Structure (SMILES): COC[C@H]1OC(=O)c2coc3c2[C@@]1(C)C1=C(C3=O)[C@@H]2CCC(=O)[C@@]2(C)C[C@H]1OC(C)=O [wortmannin]
- PI4KIII inhibition [1]: inhibits PI4KIII if used at higher concentrations
- undocking of EGFP-CHIP-K30A from cellular membranes, wortmannin [2]: causes an acute undocking of EGFP-CHIP-K30A from cellular membranes
